The results in this text go back to patent US11559538B2, “Substituted 1,2-oxaborolan-2-ols as PDE4 inhibitors” (Pfizer Inc., priority 2018, dated 2023).

The target in assay [1] is PDE4B (aa 152-484, Uniprot ID Q07343) (Homo sapiens (Human), UniProt Q07343). Briefly: PDE4 SPA assay (scintillation proximity assay). The class given is biochemical. Particulars: read-out: PDE4B2 IC50. In outline:
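PDE4B (aa 152-484, ~81.6 pM) preincubated ~10 min with compound, then 1 μM ³H/unlabeled cAMP added in Tris pH 7.5, 1.3 mM MgCl2, 0.004% Brij 35, ~2% DMSO; 30 min at RT. Product captured on SPA beads and counted; IC50 by four-parameter logistic fit.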
On the technique in general: In a scintillation proximity assay essentially only radioactivity close to the scintillant gives light.

In the next assay the test system is IL-13. Put plainly: Cytokine assay: IL-13 release from PHA-L stimulated human PBMCs. It counts as cell-based. Particulars: Homo sapiens, PBMC, read-out: IL13 IC50. In outline:
(§1)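 PBMC thaw, ~250k cells/well; cpd pre-incubation ~10 min RT; PHA-L 3.5 μg/mL final; 48 h, 37° C, 5% CO2; supernatant HTRF; IC50 by 4-parameter logistic.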

For another assay, the system named is IFNγ. Briefly: Cytokine assay: IFNγ release from PHA-L stimulated human PBMCs. It counts as cell-based. Particulars: Homo sapiens, PBMC. In outline: as §1
The test system of the next assay is IL-4. Briefly: Cytokine assay: IL-4 release from PHA-L stimulated human PBMCs. The class given is cell-based. Particulars: Homo sapiens, PBMC, read-out: IL4 IC50. In outline:
as §1

Sequence of PDE4B (aa 152-484, Uniprot ID Q07343) (Q07343 324-656): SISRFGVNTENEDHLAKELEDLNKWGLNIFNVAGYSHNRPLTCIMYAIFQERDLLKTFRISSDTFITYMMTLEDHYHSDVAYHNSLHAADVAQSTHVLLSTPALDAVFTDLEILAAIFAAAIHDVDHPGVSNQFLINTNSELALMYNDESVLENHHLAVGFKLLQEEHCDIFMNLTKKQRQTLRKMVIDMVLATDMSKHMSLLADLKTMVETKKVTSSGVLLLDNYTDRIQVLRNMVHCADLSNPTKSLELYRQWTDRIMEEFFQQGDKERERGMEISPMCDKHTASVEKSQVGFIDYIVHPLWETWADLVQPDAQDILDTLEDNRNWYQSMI

A word on the IC50: it is the concentration that gives 50% inhibition. Regarding `CCCOc1cc(-c2cccc(C3(C)COB(O)C3)n2)ccc1OC` (stereo not drawn) [Example 29, 4-(6-(4-methoxy-3-propoxyphenyl)pyridin-2-yl)-4-methyl-1,2-oxaborolan-2-ol], the IC50 in assay [1] came out at 10.5 nM; in the assay on IL-13, 3470 nM; in the assay on IFNγ it was 4.82 nM; with IL-4, 9.51 nM.
Taken in the same sequence, the figures for `CCCOc1cc(-c2cc(C3CB(O)OC3C)cnn2)ccc1OC` (stereo not drawn) [Example 30, 4-(6-(4-methoxy-3-propoxyphenyl)pyridazin-4-yl)-5-methyl-1,2-oxaborolan-2-ol] were 15.5 nM, 10000 nM, 11.6 nM and 70.7 nM.
Taken in the same sequence, the figures for `CCCOc1cc(-c2cncc(C3(CO)COB(O)C3)c2)ccc1OC` (stereo not drawn) [Example 31, 4-(hydroxymethyl)-4-(5-(4-methoxy-3-propoxyphenyl)pyridin-3-yl)-1,2-oxaborolan-2-ol] were 4.2 nM, 5730 nM, 2.96 nM and 3.92 nM.
Turning to `COc1ccc(-c2cncc(C3COB(O)C3)c2)cc1OC` (stereo not drawn) [Example 32, 4-(5-(3,4-dimethoxyphenyl)pyridin-3-yl)-1,2-oxaborolan-2-ol], the IC50 in assay [1] is 13 nM; in the assay with IL-13 it was 2250 nM; with IFNγ, 8.47 nM; with IL-4, 64 nM.
Regarding `CCOc1cc(-c2cncc(C3COB(O)C3)c2)ccc1OC` (stereo not drawn) [Example 33, 4-(5-(3-ethoxy-4-methoxyphenyl)pyridin-3-yl)-1,2-oxaborolan-2-ol], the IC50 in assay [1] was 1.25 nM; in the assay on IL-13, 181 nM; in the assay on IFNγ, 1.44 nM; with IL-4, 39.8 nM.
Taken in the same sequence, the figures for `CCCOc1cc(-c2cncc(C3COB(O)C3)c2)ccc1OC` (stereo not drawn) [Example 34, 4-(5-(4-methoxy-3-propoxyphenyl)pyridin-3-yl)-1,2-oxaborolan-2-ol] were 0.52 nM, 309 nM, 1.39 nM and 14.3 nM.
With `COc1ccc(-c2cncc(C3COB(O)C3)c2)cc1OC(C)C` (stereo not drawn) [Example 35, 4-(5-(3-isopropoxy-4-methoxyphenyl)pyridin-3-yl)-1,2-oxaborolan-2-ol], the IC50 stood at 1.17 nM in assay [1], 230 nM with IL-13, 1.55 nM in the assay on IFNγ and 6.98 nM in the assay on IL-4.
For the molecule `COc1ccc(-c2cncc(C3COB(O)C3)c2)cc1OC1CC1` (stereo not drawn) [Example 36, 4-(5-(3-cyclopropoxy-4-methoxyphenyl)pyridin-3-yl)-1,2-oxaborolan-2-ol], the IC50 came out at 0.98 nM in assay [1], 476 nM in the assay with IL-13, 1.27 nM in the assay on IFNγ and 5.25 nM with IL-4.
Take `COc1ccc(-c2cncc(C3COB(O)C3)c2)cc1OCCF` (stereo not drawn) [Example 39, 4-(5-(3-(2-fluoroethoxy)-4-methoxyphenyl)pyridin-3-yl)-1,2-oxaborolan-2-ol]: the IC50 was 1.63 nM in assay [1], 182 nM in the assay on IL-13, 1.82 nM with IFNγ and 13.8 nM in the assay with IL-4.
As for `COc1ccc(-c2cccc(C3COB(O)C3)c2)cc1OCCCF` (stereo not drawn) [Example 40, 4-(3′-(3-fluoropropoxy)-4′-methoxy-[1,1′-biphenyl]-3-yl)-1,2-oxaborolan-2-ol], the 50% inhibitory concentration (IC50) in assay [1] was determined as 0.37 nM; with IL-13, 175 nM; with IFNγ it was 1.28 nM; in the assay with IL-4 it was 29.2 nM.
For `CCOc1c(OC)ccc(-c2cncc(C3COB(O)C3)c2)c1C(F)F` (stereo not drawn) [Example 41, 4-(5-(2-(difluoromethyl)-3-ethoxy-4-methoxyphenyl)pyridin-3-yl)-1,2-oxaborolan-2-ol], the IC50 in assay [1] is 6.85 nM; in the assay with IL-13 it was 397 nM; in the assay on IFNγ, 1.87 nM; in the assay on IL-4, 6.2 nM.
Taken in the same sequence, the figures for `CCCOc1c(OC)ccc(-c2cccc(C3COB(O)C3)c2)c1C#N` (stereo not drawn) [Example 42, 3′-(2-hydroxy-1,2-oxaborolan-4-yl)-4-methoxy-3-propoxy-[1,1′-biphenyl]-2-carbonitrile] were 0.35 nM, 205 nM, 1.55 nM and 90.4 nM.
Consider `CCCOc1c(OC)ccc(-c2cccc(C3=CB(O)OC3)c2)c1C#N` [Example 43, 3′-(2-hydroxy-2,5-dihydro-1,2-oxaborol-4-yl)-4-methoxy-3-propoxy-[1,1′-biphenyl]-2-carbonitrile], for which the IC50 in assay [1] was determined as 8.23 nM; in the assay with IL-13, 10000 nM; in the assay with IFNγ it was 76 nM; in the assay on IL-4 it was 233 nM.
Take `CCOc1cc(-c2cncc(C3COB(O)C3)c2)cc(F)c1OC` (stereo not drawn) [Example 44, 4-(5-(3-ethoxy-5-fluoro-4-methoxyphenyl)pyridin-3-yl)-1,2-oxaborolan-2-ol]: the IC50 in assay [1] is 2.5 nM; in the assay on IL-13, 167 nM; in the assay with IFNγ it was 1.34 nM; with IL-4, 7.22 nM.
Take `CCOc1cc(-c2cncc(C3COB(O)C3)c2)c(F)cc1OC` (stereo not drawn) [Example 46, 4-(5-(5-ethoxy-2-fluoro-4-methoxyphenyl)pyridin-3-yl)-1,2-oxaborolan-2-ol]: the IC50 in assay [1] was found to be 3.46 nM; in the assay on IL-13, 317 nM; in the assay on IFNγ, 3.77 nM; in the assay on IL-4, 11.8 nM.
`CCOc1cc(-c2cncc(C3COB(O)C3)c2)c(Cl)cc1OC` (stereo not drawn) [Example 47, 4-(5-(2-chloro-5-ethoxy-4-methoxyphenyl)pyridin-3-yl)-1,2-oxaborolan-2-ol]: the IC50 in assay [1] worked out at 3.01 nM; in the assay with IL-13, 143 nM; with IFNγ it was 1.54 nM; with IL-4, 4.11 nM.
On the same counts, the results for `CCCOc1nc(-c2cncc(C3COB(O)C3)c2)c(F)cc1OC` (stereo not drawn) [Example 48, 4-(3-fluoro-5-methoxy-6-propoxy-[2,3′-bipyridin]-5′-yl)-1,2-oxaborolan-2-ol] are 0.12 nM, 252 nM, 0.98 nM and 0.82 nM.
Taken in the same sequence, the figures for `CCCOc1cc(-c2cncc(C3COB(O)C3)c2)cnc1OC` (stereo not drawn) [Example 51, 4-(6′-methoxy-5′-propoxy-[3,3′-bipyridin]-5-yl)-1,2-oxaborolan-2-ol] were 1.27 nM, 337 nM, 1.64 nM and 3.73 nM.
On the same counts, the results for `CCOc1cc(-c2cc(C3COB(O)C3)cnc2C)ccc1OC` (stereo not drawn) [Example 52, 4-(5-(3-ethoxy-4-methoxyphenyl)-6-methylpyridin-3-yl)-1,2-oxaborolan-2-ol] are 9.25 nM, 2610 nM, 5.74 nM and 14.6 nM.
As to `CCOc1cc(-c2cncc(C3COB(O)C3)c2C)ccc1OC` (stereo not drawn) [Example 53, 4-(5-(3-ethoxy-4-methoxyphenyl)-4-methylpyridin-3-yl)-1,2-oxaborolan-2-ol], the IC50 in assay [1] came to 1.41 nM; in the assay on IL-13 it was 115 nM; in the assay with IFNγ it was 0.6 nM; with IL-4, 4.87 nM.
On the same counts, the results for `CCCOc1cc(-c2nc(C)cc(C3COB(O)C3)n2)ccc1OC` (stereo not drawn) [Example 54, 4-(2-(4-methoxy-3-propoxyphenyl)-6-methylpyrimidin-4-yl)-1,2-oxaborolan-2-ol] are 7.77 nM, 1490 nM, 4.2 nM and 5.58 nM.
